From patent publication US6433186B1, “Amidino derivatives and their use as thormbin inhibitors” (AstraZeneca AB, priority 2000, dated 2002)

Columns and labels:
[1] = Test E: Determination of Thrombin Time ex vivo (plasma concentration of thrombin inhibitor after oral or parenteral administration); format: in vivo, rat; settings: conscious rats
Excerpt: Determination of Thrombin Time ex vivo
The inhibition of thrombin after oral or parenteral administration of the compounds of the invention, dissolved in ethanol:Solutol™:water (5:5:90), is examined in conscious rats which, one or two days prior to the experiment, are equipped with a catheter for blood sampling from the carotid artery. On the experimental day blood samples are withdrawn at fixed times after the administration of the compound into plastic tubes containing 1 part sodium citrate solution (0.13 mol per L) and 9 parts of blood. The tubes are centrifuged to obtain platelet poor plasma.
50 μL of plasma samples are precipitated with 100 μL of cold acetonitrile. The samples are centrifuged for 10 minutes at 4000 rpm. 75 μL of the supernatant is diluted with 75 μL of 0.2% formic acid. 10 μL volumes of the resulting solutions are analysed by LC-MS/MS and the concentrations of thrombin inhibitor are determined using standard curves.

[2] = Test G: Determination of in vitro Stability, rat liver microsomes; format: in vitro ADME, Sprague-Dawley rats; settings: liver microsomes from rats, 37° C., up to 60 minutes
Procedure: (§1) Determination of in vitro Stability
(§2) Liver microsomes were prepared from Sprague-Dawley rats and human liver samples according to internal SOPs. The compounds were incubated at 37° C. at a total microsome protein concentration of 3 mg/mL in a 0.05 mol/L TRIS buffer at pH 7.4, in the presence of the cofactors NADH (2.5 mmol/L) and NADPH (0.8 mmol/L). The initial concentration of compound was 5 or 10 μmol/L. Samples were taken for analysis up to 60 minutes after the start of the incubation. The enzymatic activity in the collected sample was immediately stopped by adding 20% […] at a volume corresponding to 3.3% of the total sample volume. The concentration of compound remaining (FINAL CONC) in the 60 min. sample was determined by means of LCMS using a sample collected at zero time as reference (START CONC). The % of degraded thrombin inhibitor was calculated as: [formula]

[3] = Test G: Determination of in vitro Stability, human liver microsomes; format: in vitro ADME; settings: liver microsomes from humans, 37° C., up to 60 minutes
Procedure: as §1, §2

With CC(=O)Nc1cc(Cl)cc([C@@H](O)C(=O)N2CC[C@H]2C(=O)NCc2ccc(C(N)=NOC(C)C)cc2)c1 [Example 6, Ph(3-Cl)(5-NHAc)-(R)CH(OH)C(O)-(S)Aze-Pab(OiPr)] the “oral and/or parenteral bioavailability as the corresponding active inhibitor (free amidine)” value [1] was “exhibit oral and/or parenteral bioavailability in the rat as the corresponding active inhibitor (free amidine)”.
For CNc1cc(Cl)cc([C@@H](O)C(=O)N2CC[C@H]2C(=O)NCc2ccc(C(N)=NOC)cc2)c1 [Example 3, Ph(3-Cl)(5-NHMe)-(R)CH(OH)C(O)-(S)Aze-Pab(OMe)], the “conversion to the corresponding active inhibitor (free amidine)” value [2] was “converted to the corresponding active inhibitor (free amidine)”, the “conversion to the corresponding active inhibitor (free amidine)” value [3] was “converted to the corresponding active inhibitor (free amidine)” and the “oral and/or parenteral bioavailability as the corresponding active inhibitor (free amidine)” value [1] was “exhibit oral and/or parenteral bioavailability in the rat as the corresponding active inhibitor (free amidine)”.
